According to patent publication US6060448A, “Casein fragments having growth promoting activity” (Pepsyn Limited, priority 1995, dated 2000):

System: Rama 27 cells
Assay: incorporation of [3H] thymidine into the DNA of Rama 27 cells (growth promoting / mitogenic assay)
Assay type: cell-based
Conditions: Rama 27 rat mammary fibroblast cell line
Method: The growth promoting activity of different milk types was determined by precipitating caseins and assaying the supernatants for their ability to stimulate the incorporation of [3H] thymidine into the DNA of Rama 27 cells by known methodology (Smith et al, 1984).
The protein fractions A,B,C, of the casein digest where assayed for their ability to stimulate the incorporation of [3H] thymidine into the DNA of Rama 27 cells exactly as described previously.
In table 1, * indicates one unit of activity is defined as the amount of protein required to produce half maximal stimulation compared with 1% FCS when added to R27 cells.

PDGF
growth promoting activity (incorporation of 3H-thymidine into DNA): not significantly stimulated
